Results as given in US20170065564A1, “BIS-CYCLIC GUANIDINE COMPOUND COMPOSITIONS, METHODS OF USE AND TREATMENT THEREOF” (University of South Florida, priority 2014, published 2017).

How the values were obtained:
Test in all cases: MIC micro broth dilution assay
Type in all cases: cell-based
Staphylococcus aureus = system: Staphylococcus aureus; design: key to stacked score activity, 100/MIC, S: stacked score = 100/MIC; details: S. aureus
Protocol: (§1) For this study we used a representative panel of multi-drug resistant clinical ESKAPE pathogen isolates (Supplemental Table S6).^42 43 3a, 44 45 Gram-positive organisms were grown in tryptic soy broth media (TSB), whilst Gram-negative organisms were grown in lysogeny Broth (LB), as described by us previously. ^43 MIC and MBC determination assays.
(§2) Broth cultures of ESKAPE strains were grown overnight before being diluted 1 in 1,000 in fresh media. Sterile 96-well plates were loaded with culture and compounds (in DMF) were added at decreasing concentrations to equal a total volume of 200 μl per well. Care was taken to not add more than 2.0% DMF to any well. Plates were then incubated at 37° C., and MICs determined after 24 hours by visual inspection for a lack of turbidity in wells. All assays were performed in triplicate with identical results obtained. For both the scaffold ranking and positional scanning samples, relative broad-spectrum activity was determined via stacked scores: […]

Klebsiella pneumoniae = system: Klebsiella pneumoniae; design: key to stacked score activity, 100/MIC, K: stacked score = 100/MIC; details: K. pneumoniae
Protocol: as §1, §2

Acinetobacter baumannii = system: Acinetobacter baumannii; design: key to stacked score activity, 100/MIC, A: stacked score = 100/MIC; details: A. baumannii
Protocol: as §1, §2

Enterobacter cloacae = system: Enterobacter cloacae; design: key to stacked score activity, 100/MIC, E: stacked score = 100/MIC; details: E. cloacae
Protocol: as §1, §2

Enterococcus faecium = system: Enterococcus faecium; design: key to stacked score activity, 100/MIC, E: stacked score = 100/MIC; details: E. faecium
Protocol: as §1, §2

SMILES | stacked score activity, 100/MIC, S (Staphylococcus aureus) | stacked score activity, 100/MIC, K (Klebsiella pneumoniae) | stacked score activity, 100/MIC, A (Acinetobacter baumannii) | stacked score activity, 100/MIC, E (Enterobacter cloacae) | stacked score activity, 100/MIC, E (Enterococcus faecium)
N=C1NC[C@H](CCCCN2C[C@@H](Cc3cccc4ccccc34)N(CCc3ccc(-c4ccccc4)cc3)C2=N)N1CCC12CC3CC(CC(C3)C1)C2 [Compound 24] | 10 | 0 | 0 | 0 | 4
CCCCCCCN1C(=N)NC[C@@H]1CCCCN1CCNC1=N [Compound 28] | 0 | 0 | 0 | 0 | 0
CCCCCCCN1C(=N)NC[C@@H]1CCCCN1CCN(CCc2cccc(C)c2)C1=N [Compound 29] | 4 | 0 | 0 | 0 | 0
CCCCCCCN1C(=N)NC[C@@H]1CCCCN1CCN(CC(C)CC)C1=N (stereo partly shown) [Compound 30] | 0 | 0 | 0 | 0 | 0
CCCCCCCN1C(=N)NC[C@@H]1CCCCN1C[C@H](C(C)CC)NC1=N (stereo partly shown) [Compound 31] | 4 | 0 | 0 | 0 | 0
CCCCCCCN1C(=N)NC[C@@H]1CCCCN1C[C@H](C(C)CC)N(CC(C)CC)C1=N (stereo partly shown) [Compound 33] | 4 | 0 | 0 | 0 | 0
CCCCCCCN1C(=N)NC[C@@H]1CCCCN1C[C@@H](CCC)NC1=N [Compound 34] | 4 | 0 | 0 | 0 | 0
CCCCCCCN1C(=N)NC[C@@H]1CCCCN1C[C@@H](CCC)N(CC(C)CC)C1=N (stereo partly shown) [Compound 36] | 4 | 0 | 0 | 0 | 0

Other lines, results leading:

stacked score activity, 100/MIC, S (Staphylococcus aureus) | stacked score activity, 100/MIC, K (Klebsiella pneumoniae) | stacked score activity, 100/MIC, A (Acinetobacter baumannii) | stacked score activity, 100/MIC, E (Enterobacter cloacae) | stacked score activity, 100/MIC, E (Enterococcus faecium) | SMILES
0 | 0 | 0 | 0 | 0 | N=C1NCCN1CCCC[C@H]1CNC(=N)N1CC1CCCCC1 [Compound 37]
4 | 0 | 0 | 0 | 0 | Cc1cccc(CCN2CCN(CCCC[C@H]3CNC(=N)N3CC3CCCCC3)C2=N)c1 [Compound 38]
0 | 0 | 0 | 0 | 0 | CCC(C)CN1CCN(CCCC[C@H]2CNC(=N)N2CC2CCCCC2)C1=N (stereo partly shown) [Compound 39]
0 | 0 | 0 | 0 | 0 | CCC(C)[C@H]1CN(CCCC[C@H]2CNC(=N)N2CC2CCCCC2)C(=N)N1 (stereo partly shown) [Compound 40]
4 | 0 | 0 | 0 | 0 | CCC(C)[C@H]1CN(CCCC[C@H]2CNC(=N)N2CC2CCCCC2)C(=N)N1CCc1cccc(C)c1 (stereo partly shown) [Compound 41]
4 | 0 | 0 | 0 | 0 | CCC(C)CN1C(=N)N(CCCC[C@H]2CNC(=N)N2CC2CCCCC2)C[C@@H]1C(C)CC (stereo partly shown) [Compound 42]
